Data taken from patent US20230105108A1, “COMPOUNDS FOR THE TREATMENT OF BACTERIAL INFECTIONS AND POTENTIATION OF ANTIBIOTICS” (GEORGIA STATE UNIVERSITY RESEARCH FOUNDATION, INC., priority 2019, published 2023).
Structures can show the parent of a compound that is named as a salt. Where two headings read alike, the source gives them in different places.

Legend:
Format in all cases: cell-based
[1] = test system: NDM-1 expressing E. coli strain; test: microbe, parasite or virus in culture; conditions: Escherichia coli; NDM-1 expressing E. coli; read-out: MIC of MD-124
[2] = test system: mcr-1 over-expressing E. coli strains; test: microbe, parasite or virus in culture
E. coli = test: Bacterial resistance frequency study
Description: Bacterial resistance frequency study: E. coli was grown overnight in Mueller Hinton II cation-adjusted broth medium and concentrated to ˜5×10^9 CFUs/ml in Mueller Hinton II cation-adjusted broth. […] Then the plates were incubated at 37° C. for 48 h. Then the colonies formed on the plate were recorded and resistant frequency was calculated.

[3] = test system: A. baumannii (ATCC 17978); test: MIC, sensitization fold and FIC index on A. baumannii; conditions: Acinetobacter baumannii, ATCC17978; A. baumannii; read-out: MIC of MD-124
K. pneumoniae (43816) = test: MIC, sensitization fold and FIC index on K. pneumoniae; conditions: Klebsiella pneumoniae; K. pneumoniae; read-out: MIC of MD-124
[4] = IC50 of Table 7 (cell line not stated)
B. subtilis = test: MIC determination and sensitization fold on B. subtilis; conditions: for Sensitization fold: erythromycin; for MIC: Bacillus subtilis
E. coli (ATCC 25922) = test: Antibiotic uptake in the presence and absence of MD-100 (HPLC); conditions: E. coli lysate, presence vs absence of 25 μg/ml MD-100
Description: Direct comparison of the antibiotic uptake in the presence and absence of MD-100 through HPLC study. E. coli (ATCC 25922) was cultured in Mueller Hinton II cation-adjusted broth for overnight at 37° C. to reach a density of OD600 of 0.8 to 1.0. To 20 ml fresh Mueller Hinton II cation-adjusted broth was added 50 μl E. coli stock, 200 μl 5 mg/ml O—CH3 novobiocin and 100 μl 10 mM MD-100. In the other group, the same amount of E. coli stock, O—CH3 novobiocin was used in the absence of MD-100. Then E. coli was incubated for 20 h at 37° C. with continuous shaking of 200 rpm. After, the E. coli suspension was centrifuged at 3000 g for 10 min and the culture media was removed to obtain bacteria pallet. The pallets from the two groups was re-suspended in PBS to reach the same OD600 of 2.0. To this E. coli suspension was spiked with 10 μM internal standard. 1 ml E. coli from each group in PBS was lysed by sonication on ice for 15 min, followed by adding 2 ml MeOH, the mixture was then centrifuged at 3000 g for 5 min and the supernatant was analyzed by HPLC. 20 μl of each sample was injected into Shimadzu Prominence UFLC (column: Waters C18, […], 4.6×100 mm, injection loop volume: 20 μl). The mobile phase was acetonitrile (ACN)/H2O (with 0.05% trifluoroacetic acid in the aqueous) with ratios defined as: 20%˜55% ACN, 0˜10 min; 55%˜65% ACN, 10˜20 min; 65%˜20% ACN, 20˜25 min. […]

Compound	MIC [1] [µg/mL]	MIC ([2]; Escherichia coli, mcr-1 over-expression E. coli, read-out: MIC of MD-124) [µg/mL]	MIC of Rif with 3 μg/ml MD-124 ([2]; strain mcr-1 A)	Sensitization fold with 3 μg/ml MD-124 ([2]; strain mcr-1 A, rifampicin, dihydrochloride) [fold]	MIC of Rif with 3 μg/ml MD-124 ([2]; strain mcr-1 B)	MIC of Rif with 5 μg/ml MD-124 ([2]; strain mcr-1 B)	Sensitization fold with 3 μg/ml MD-124 ([2]; strain mcr-1 B, rifampicin) [fold]	Sensitization fold with 5 μg/ml MD-124 ([2]; strain mcr-1 B, rifampicin) [fold]	resistant frequency towards MD-124 (E. coli; 10 μg/ml MD-124, 2.7×10^10 CFUs tested)	lower resistance frequency towards MD-124/antibiotic combination than the antibiotic itself (E. coli; 10 μg/ml MD-124, antibiotic 2 to 7-fold of MIC)	MIC [3] [µg/mL]	MIC (K. pneumoniae (43816)) [µg/mL]	IC50 [4] [µM]	growth density compared with the control (no treatment) group (B. subtilis; B. subtilis, 5.5 μg/ml alone, no antibiotic) [%]	Sensitization fold (B. subtilis; B. subtilis, compound at 6 μM) [fold at 6 μM.]	Sensitization fold (B. subtilis; B. subtilis, compound at 12 μM)	MIC (B. subtilis; 24 h, B. subtilis, compound alone, read-out: MIC) [µM]	MIC (B. subtilis; wild type B. subtilis, read-out: MIC of DB2560) [µg/mL]	relative intracellular concentration of O-methyl novobiocin (E. coli (ATCC 25922))
N=C(N)c1ccc(COc2cc(OCc3ccc(C(=N)N)cc3)cc(C(F)(F)F)c2)cc1 [MD-124, 4,4′-(((5-(trifluoromethyl)-1,3-phenylene)bis(oxy))bis(methylene)) dibenzimidamide dihydrochloride]	50	12.5	0.32	16	1.25	0.16	4	32	< 3.7×10^−11	2 to 3 orders of magnitude	25	25							
Cc1cc(COc2ccc(C(=N)N)cc2)cc(COc2ccc(C(=N)N)cc2)c1 [MD-100, 4,4′-(((5-methyl-1,3-phenylene)bis(methylene))bis(oxy))dibenzimidamide dihydrochloride]													100	80	8	32-fold at 12 μM;	50	50	greatly increased
